From ChEMBL document CHEMBL3822436, “New polyhydroxylated flavon-3-ols and 3-hydroxy-2-styrylchromones: synthesis and ROS/RNS scavenging activities” (Eur J Med Chem, 2016) come the findings set out here.

What all share (type): physicochemical
The nature of data set [1]: Antioxidant activity assessed as inhibition of singlet oxygen-induced oxidation of DHR to fluorescent rhodamine-123 measured after 30 mins by fluorescence microplate screening assay. To be noted: for inhibition (INH): 0.5 h.
A short description of data set [2]: Antioxidant activity assessed as inhibition of HOCl-induced oxidation of non-fluorescent DHR to fluorescent rhodamine-123 by fluorescence-based assay.
Data set [3] can be described thus: Antioxidant activity assessed as inhibition of peroxynitrite-induced oxidation of DHR to rhodamine-123 measured after 2 mins by fluorimetric analysis.
Data set [4] is described as follows: Antioxidant activity assessed as inhibition of peroxynitrite-induced oxidation of DHR to rhodamine-123 measured after 2 mins in presence of NaHCO3 by fluorimetric analysis.
The nature of data set [5]: Antioxidant activity assessed as inhibition of nitric oxide-induced oxidation of DAF-2 to DAF-2T measured after 30 mins by fluorimetric analysis.
Data set [6] is described as follows: Antioxidant activity assessed as inhibition of hydrogen peroxide-induced lucigenin oxidation at 1000 uM by chemiluminescence-based assay.
Data set [7] is described as follows: Antioxidant activity assessed as inhibition of superoxide-induced NBT reduction at 100 uM measured during 2 mins by spectrophotometric analysis.
Data set [8] can be described thus: Antioxidant activity assessed as inhibition of superoxide-induced NBT reduction measured during 2 mins by spectrophotometric analysis.
A short description of data set [9]: Antioxidant activity assessed as inhibition of peroxynitrite-induced oxidation of DHR to rhodamine-123 at 5 uM measured after 2 mins in presence of NaHCO3 by fluorimetric analysis.
A short description of data set [10]: Antioxidant activity assessed as inhibition of peroxyl radical-induced oxidation of fluorescein measured as trolox equivalent by ORAC assay.

In general, IC50 refers to the concentration that gives 50% inhibition. As to `COc1ccc2c(=O)c(O)c(/C=C/c3ccc(O)c(O)c3)oc2c1OC`, the IC50 stood at 1200 nM in data set [1]; 820 nM in data set [2]; 570 nM in [3]; 1300 nM in [4]; 830 nM in [5]. The “inhibition (INH)” value in data set [1] is “Dose-dependent effect”; in data set [6], “Not Active”; in data set [7], 49%.

For `O=c1c(O)c(/C=C/c2ccc(O)c(O)c2)oc2c(O)c(O)ccc12`, the IC50 was determined as 30000 nM in data set [8]; 1000 nM in data set [1]; 1420 nM in [2]; 290 nM in [3]; 980 nM in data set [4]; 670 nM in data set [5]. The “inhibition (INH)” value is given as “Dose-dependent effect” in [1] and “Not Active” in data set [6].

Take `O=c1c(O)c(-c2ccc(O)c(O)c2)oc2c(O)c(O)ccc12`: the IC50 was determined as 19000 nM in data set [8]; 4200 nM in [1]; 2400 nM in [2]; 910 nM in [3]; 930 nM in [4]; 120 nM in data set [5]. Moreover, the “inhibition (INH)” value in data set [1] is given as “Dose-dependent effect”; in data set [6], “Not Active”.

For `COc1ccc(/C=C/c2oc3c(O)c(O)ccc3c(=O)c2O)cc1OC`, the “inhibition (INH)” value in [9] is recorded as “Not Active”; in [1], “Dose-dependent effect”; in data set [6], “Not Active”. Moreover, the IC50 in data set [8] came out at 35000 nM; in data set [1] it was 1000 nM; in [2] it was 910 nM; in [3], 570 nM; in data set [5], 1000 nM.

Turning to `COc1ccc2c(=O)c(O)c(-c3ccc(O)c(O)c3)oc2c1OC`, the IC50 in data set [8] was 58000 nM; in data set [1] it was 1300 nM; in [2] it was 3300 nM; in data set [3] it was 590 nM; in data set [4], 1030 nM; in data set [5] it was 58 nM. Also, the figures for the “inhibition (INH)” value in [1] and in data set [6] were “Dose-dependent effect” and “Not Active”, respectively.

For `O=c1c(O)c(-c2ccc(O)c(O)c2)oc2cc(O)cc(O)c12` [QUERCETIN], the Activity in [10] was 0.49 uMequiv/uM. Besides, the IC50 in data set [8] is 67000 nM; in [2], 800 nM; in data set [3], 760 nM; in [4] it was 1100 nM. The “inhibition (INH)” value in data set [6] is listed as “Not Active”.

In the case of `COc1ccc(-c2oc3c(O)c(O)ccc3c(=O)c2O)cc1OC`, the IC50 in data set [8] is 21000 nM; in [1], 2400 nM; in [2], 6300 nM; in data set [3], 710 nM; in data set [4] it was 2500 nM; in [5], 55 nM. The figures for the “inhibition (INH)” value in [1] and in data set [6] were “Dose-dependent effect” and “Not Active”, respectively.
